Measurements: the NIST ThermoML archive (doi:10.1016/j.jct.2012.09.016)

Tests used:
[1] = molar heat capacity at constant pressure; details: Liquid, Small sample (50 mg) DSC
[2] = Liquid, Vibrating tube method

CCCCCN [1-pentanamine]
Details	mass density, [2] [kg/m3]	molar heat capacity at constant pressure, [1] [J/K/mol]
293.15 K, 100 kPa	754	–
293.15 K, 10000 kPa	760.8	–
293.15 K, 20000 kPa	767.2	–
293.15 K, 30000 kPa	773.3	–
293.15 K, 40000 kPa	779	–
293.15 K, 50000 kPa	784.3	–
293.15 K, 60000 kPa	789.3	–
293.15 K, 70000 kPa	794	–
293.15 K, 80000 kPa	798.5	–
293.15 K, 90000 kPa	802.9	–
293.15 K, 100000 kPa	806.9	–
293.15 K, 110000 kPa	810.9	–
293.15 K, 120000 kPa	814.6	–
293.15 K, 130000 kPa	818.2	–
293.15 K, 140000 kPa	821.8	–
313.15 K, 100 kPa	–	221.7
313.15 K, 20000 kPa	–	219.7
313.15 K, 40000 kPa	–	218.3
313.15 K, 60000 kPa	–	217.9
323.15 K, 100 kPa	–	222.7
323.15 K, 20000 kPa	–	220.1
323.15 K, 40000 kPa	–	218.7
323.15 K, 60000 kPa	–	218.3
333.15 K, 100 kPa	–	223.9
333.15 K, 20000 kPa	–	220.8
333.15 K, 40000 kPa	–	219.4
333.15 K, 60000 kPa	–	218.9
343.15 K, 100 kPa	–	225.3
343.15 K, 20000 kPa	–	221.8
343.15 K, 40000 kPa	–	220.5
343.15 K, 60000 kPa	–	219.8
353.15 K, 100 kPa	698.5	226.9
353.15 K, 10000 kPa	709.4	–
353.15 K, 20000 kPa	718.5	223.3
353.15 K, 30000 kPa	726.8	–
353.15 K, 40000 kPa	734.3	221.8
353.15 K, 50000 kPa	741.2	–
353.15 K, 60000 kPa	747.6	221.1
353.15 K, 70000 kPa	753.6	–
353.15 K, 80000 kPa	759.3	–
353.15 K, 90000 kPa	764.7	–
353.15 K, 100000 kPa	769.8	–
353.15 K, 110000 kPa	774.5	–
353.15 K, 120000 kPa	779	–
353.15 K, 130000 kPa	783.5	–
353.15 K, 140000 kPa	787.7	–
363.15 K, 100 kPa	688.6	–
363.15 K, 10000 kPa	700.1	–
363.15 K, 20000 kPa	710	225.1
363.15 K, 30000 kPa	718.7	–
363.15 K, 40000 kPa	726.6	223.5
363.15 K, 50000 kPa	733.9	–
363.15 K, 60000 kPa	740.6	222.6
363.15 K, 70000 kPa	746.9	–
363.15 K, 80000 kPa	752.8	–
363.15 K, 90000 kPa	758.5	–
363.15 K, 100000 kPa	763.7	–
363.15 K, 110000 kPa	768.7	–
363.15 K, 120000 kPa	773.4	–
363.15 K, 130000 kPa	777.9	–
363.15 K, 140000 kPa	782.1	–
373.15 K, 100 kPa	679	–
373.15 K, 10000 kPa	691.5	–
373.15 K, 20000 kPa	702	227.4
373.15 K, 30000 kPa	711.3	–
373.15 K, 40000 kPa	719.6	225.5
373.15 K, 50000 kPa	727.1	–
373.15 K, 60000 kPa	734.1	224.5
373.15 K, 70000 kPa	740.5	–
373.15 K, 80000 kPa	746.7	–
373.15 K, 90000 kPa	752.3	–
373.15 K, 100000 kPa	757.6	–
373.15 K, 110000 kPa	762.7	–
373.15 K, 120000 kPa	767.6	–
373.15 K, 130000 kPa	772.2	–
373.15 K, 140000 kPa	776.6	–
383.15 K, 10000 kPa	682.6	–
383.15 K, 20000 kPa	693.8	230
383.15 K, 30000 kPa	703.7	–
383.15 K, 40000 kPa	712.3	227.8
383.15 K, 50000 kPa	720.3	–
383.15 K, 60000 kPa	727.5	226.6
383.15 K, 70000 kPa	734.3	–
383.15 K, 80000 kPa	740.6	–
383.15 K, 90000 kPa	746.5	–
383.15 K, 100000 kPa	752	–
383.15 K, 110000 kPa	757.2	–
383.15 K, 120000 kPa	762.2	–
383.15 K, 130000 kPa	766.8	–
383.15 K, 140000 kPa	771.4	–
393.15 K, 10000 kPa	673.1	–
393.15 K, 20000 kPa	685.2	232.9
393.15 K, 30000 kPa	695.5	–
393.15 K, 40000 kPa	704.7	230.4
393.15 K, 50000 kPa	713.2	–
393.15 K, 60000 kPa	720.8	229
393.15 K, 70000 kPa	727.9	–
393.15 K, 80000 kPa	734.4	–
393.15 K, 90000 kPa	740.3	–
393.15 K, 100000 kPa	746	–
393.15 K, 110000 kPa	751.4	–
393.15 K, 120000 kPa	756.5	–
393.15 K, 130000 kPa	761.4	–
393.15 K, 140000 kPa	766	–
403.15 K, 10000 kPa	664.1	–
403.15 K, 20000 kPa	677	236.3
403.15 K, 30000 kPa	687.8	–
403.15 K, 40000 kPa	697.3	233.3
403.15 K, 50000 kPa	705.9	–
403.15 K, 60000 kPa	713.9	231.8
403.15 K, 70000 kPa	721	–
403.15 K, 80000 kPa	727.8	–
403.15 K, 90000 kPa	734	–
403.15 K, 100000 kPa	739.9	–
403.15 K, 110000 kPa	745.4	–
403.15 K, 120000 kPa	750.7	–
403.15 K, 130000 kPa	755.7	–
403.15 K, 140000 kPa	760.5	–

CCCCCCN [1-hexanamine]
Details	mass density, [2] [kg/m3]	molar heat capacity at constant pressure, [1] [J/K/mol]
293.15 K, 100 kPa	765	–
293.15 K, 10000 kPa	771.2	–
293.15 K, 20000 kPa	777.4	–
293.15 K, 30000 kPa	783.2	–
293.15 K, 40000 kPa	788.6	–
293.15 K, 50000 kPa	793.7	–
293.15 K, 60000 kPa	798.6	–
293.15 K, 70000 kPa	803.1	–
293.15 K, 80000 kPa	807.5	–
293.15 K, 90000 kPa	811.8	–
293.15 K, 100000 kPa	815.8	–
293.15 K, 110000 kPa	819.6	–
293.15 K, 120000 kPa	823.3	–
293.15 K, 130000 kPa	826.9	–
293.15 K, 140000 kPa	830.3	–
313.15 K, 100 kPa	–	253.5
313.15 K, 20000 kPa	–	251
313.15 K, 40000 kPa	–	250.1
313.15 K, 60000 kPa	–	248.9
323.15 K, 100 kPa	–	253.7
323.15 K, 20000 kPa	–	251.5
323.15 K, 40000 kPa	–	250.5
323.15 K, 60000 kPa	–	249.3
333.15 K, 100 kPa	–	254.4
333.15 K, 20000 kPa	–	252.4
333.15 K, 40000 kPa	–	251.2
333.15 K, 60000 kPa	–	250.1
343.15 K, 100 kPa	–	255.7
343.15 K, 20000 kPa	–	253.6
343.15 K, 40000 kPa	–	252.3
343.15 K, 60000 kPa	–	251.3
353.15 K, 100 kPa	712.4	257.5
353.15 K, 10000 kPa	722.4	–
353.15 K, 20000 kPa	731.1	255.2
353.15 K, 30000 kPa	739.1	–
353.15 K, 40000 kPa	746.2	253.8
353.15 K, 50000 kPa	752.8	–
353.15 K, 60000 kPa	758.9	252.8
353.15 K, 70000 kPa	764.7	–
353.15 K, 80000 kPa	770.1	–
353.15 K, 90000 kPa	775.2	–
353.15 K, 100000 kPa	780.1	–
353.15 K, 110000 kPa	784.7	–
353.15 K, 120000 kPa	789.2	–
353.15 K, 130000 kPa	793.4	–
353.15 K, 140000 kPa	797.5	–
363.15 K, 100 kPa	703.9	259.8
363.15 K, 10000 kPa	714.4	–
363.15 K, 20000 kPa	723.6	257.2
363.15 K, 30000 kPa	731.9	–
363.15 K, 40000 kPa	739.3	255.6
363.15 K, 50000 kPa	746.2	–
363.15 K, 60000 kPa	752.6	254.7
363.15 K, 70000 kPa	758.5	–
363.15 K, 80000 kPa	764.1	–
363.15 K, 90000 kPa	769.4	–
363.15 K, 100000 kPa	774.4	–
363.15 K, 110000 kPa	779.1	–
363.15 K, 120000 kPa	783.6	–
363.15 K, 130000 kPa	787.9	–
363.15 K, 140000 kPa	792.1	–
373.15 K, 100 kPa	694.8	262.6
373.15 K, 10000 kPa	706	–
373.15 K, 20000 kPa	716	259.6
373.15 K, 30000 kPa	724.5	–
373.15 K, 40000 kPa	732.4	257.8
373.15 K, 50000 kPa	739.5	–
373.15 K, 60000 kPa	746.1	256.9
373.15 K, 70000 kPa	752.2	–
373.15 K, 80000 kPa	758.1	–
373.15 K, 90000 kPa	763.5	–
373.15 K, 100000 kPa	768.7	–
373.15 K, 110000 kPa	773.5	–
373.15 K, 120000 kPa	778.2	–
373.15 K, 130000 kPa	782.6	–
373.15 K, 140000 kPa	786.9	–
383.15 K, 100 kPa	686.1	–
383.15 K, 10000 kPa	698.2	–
383.15 K, 20000 kPa	708.6	262.3
383.15 K, 30000 kPa	717.6	–
383.15 K, 40000 kPa	725.8	260.3
383.15 K, 50000 kPa	733.3	–
383.15 K, 60000 kPa	740.2	259.5
383.15 K, 70000 kPa	746.5	–
383.15 K, 80000 kPa	752.5	–
383.15 K, 90000 kPa	758.1	–
383.15 K, 100000 kPa	763.4	–
383.15 K, 110000 kPa	768.3	–
383.15 K, 120000 kPa	773.2	–
383.15 K, 130000 kPa	777.7	–
383.15 K, 140000 kPa	782	–
393.15 K, 100 kPa	676.2	–
393.15 K, 10000 kPa	689.2	–
393.15 K, 20000 kPa	700.3	265.3
393.15 K, 30000 kPa	709.8	–
393.15 K, 40000 kPa	718.4	263.1
393.15 K, 50000 kPa	726.6	–
393.15 K, 60000 kPa	733.7	262.4
393.15 K, 70000 kPa	740.3	–
393.15 K, 80000 kPa	746.5	–
393.15 K, 90000 kPa	752.2	–
393.15 K, 100000 kPa	757.7	–
393.15 K, 110000 kPa	762.9	–
393.15 K, 120000 kPa	767.8	–
393.15 K, 130000 kPa	772.5	–
393.15 K, 140000 kPa	776.9	–
403.15 K, 100 kPa	666.9	–
403.15 K, 10000 kPa	680.9	–
403.15 K, 20000 kPa	692.5	268.8
403.15 K, 30000 kPa	702.8	–
403.15 K, 40000 kPa	711.7	266.4
403.15 K, 50000 kPa	719.9	–
403.15 K, 60000 kPa	727.2	265.7
403.15 K, 70000 kPa	734.1	–
403.15 K, 80000 kPa	740.4	–
403.15 K, 90000 kPa	746.5	–
403.15 K, 100000 kPa	752.1	–
403.15 K, 110000 kPa	757.4	–
403.15 K, 120000 kPa	762.5	–
403.15 K, 130000 kPa	767.2	–
403.15 K, 140000 kPa	771.8	–
